Experimental data: patent US5853731A, “Thromboxane A2 Receptor antagonism and antioxidant action of cinnamophilin and its derivatives, their pharmaceutical compositions and uses” (National Science Council, priority 1997, dated 1998)
Like-named read-outs stand apart in the source and are kept apart here.

Legend:
[1] = tested on: TX synthase; assay: Large scale screening test: TX synthase inhibition; assay type: biochemical
[2] = Antioxidation (absorbance at 500 nm, FeSCN method)
Text: (Absorbance at 500 nm, using FeSCN method)

[3] = tested on: rat thoracic aorta; assay: Rat aortic contraction caused by norepinephrine and high potassium (KCl); assay type: cell-based, Wistar rat; details: for K+ contraction (%), Tonic: K+ (80 mM); for K+ contraction (%), Tonic / norepinephrine contraction (%), Phrase (phasic) / norepinephrine contraction (%), Tonic: 15 min; for norepinephrine contraction (%), Phrase (phasic) / norepinephrine contraction (%), Tonic: norepinephrine 3 μM
Description: A. Rat Aortic Contraction
Wistar rats of either sex weighing 250 g to 300 g were killed by a blow to the head. The thoracic aorta was isolated and excess fat and connective tissue were removed. Vessels were cut into rings of about 5 mm in length and mounted in organ baths containing 5 ml Krebs solution of the following composition (mM): NaCl (118.4), KCl (4.7), CaCl (1.9), MgSO4 (1.2), KH2 PO4 (1.2), NaHCO3 (25.0) and glucose (11.7). The tissue bath solution was maintained at 37° C. and gassed with 95% O2 :5% CO2 mixture. Two stainless steel hooks were inserted into the aortic lumen, one was fixed while the other was connected to a transducer. Aortae were equilibrated in the medium for 90 min with three changes of Krebs solution and maintained under an optimal tension of 1 g before specific experimental protocols were initiated.
Contraction was recorded isometrically via a force-displacement transducer connected to a Grass polygraph. Aortae were allowed to preincubate for 15 minutes with cinnamophilin before generating the cumulative concentration-response curve with each agonist for 15-30 min at 3 min intervals. Results are expressed as a percentage of the maximal control response for each agonist.
Rat aorta ring were preincubated with lignans or DMSO (0.1% control) at
37° C. for 15 min, then the inducer was added.

[4] = tested on: PGE2 formation; assay: Prostaglandin E2 formation caused by arachidonic acid (AA); assay type: cell-based; details: for Prostaglandin E2: caused by AA
[5] = tested on: human platelet-rich plasma; assay: Aggregation test of human platelet-rich plasma; assay type: cell-based; details: for IC50: Homo sapiens, Platelet
Description: C. Platelet aggregation and ATP release reaction test
The method reported by Born (J. Physiol. 168, 178, 1963) was used to determine the platelet aggregation by a Lumi-aggregometer (Model 1020, Payton, Canada). Platelet suspension (0.4 ml) was added into a small glass tube coated with silicone, and stirred at 900 rpm with a small magnetic stirrer. Unless otherwise specified, the antagonist was added 1 minute before the inducing agent, and all the reactions were carried out at 37° C. The aggregation was calculated by following formula: […]
aggregation (% )=(light absorption before adding inducing agent-light absorption after adding inducing agent)/(light absorption before adding inducing agent-light absorption of Tyrode solution)×100%
(5 μM), Adrenaline (10 μM),

[6] = tested on: thromboxane B2 formation; assay: Thromboxane B2 formation caused by arachidonic acid (AA); assay type: cell-based; details: for Thromboxane B2: caused by AA

For `COc1cc(CC(C)C(C)C(=O)c2ccc(O)c(OC)c2)ccc1O` (stereo not drawn) [Compound 1, cinnamophilin], the “TX synthase inhibitory property” value [1] was “TX synthase inhibitory”, the “antioxidation capability” value ([2]; 20 μM, compared with α-tocopherol at same concentration) was “lower than α-tocopherol at the same concentration” and the “Absorbance at 500 nm” value ([2]; 20 μM, induce time 0, control 0.047) was 0.045. The “Absorbance at 500 nm” value ([2]; 20 μM, induce time 4, control 0.084) was 0.076, the “Absorbance at 500 nm” value ([2]; 20 μM, induce time 7, control 0.201) was 0.146 and the “Absorbance at 500 nm” value ([2]; 20 μM, induce time 10, control 0.343) was 0.176. For the same compound, the “Absorbance at 500 nm” value ([2]; 20 μM, induce time 16) was 0.346, the “Absorbance at 500 nm” value ([2]; 20 μM, induce time 19) was 0.399 and the “Absorbance at 500 nm” value ([2]; 20 μM, induce time 22) was 0.508. For the same compound, the “Absorbance at 500 nm” value ([2]; 20 μM, induce time 25) was 0.796, the “Absorbance at 500 nm” value ([2]; 20 μM, induce time 28) was 1.301 and the “inhibitory effect on fatty oil peroxidation” value ([2]; 40 μM) was “potential inhibitory effect on fatty oil peroxidation”. For the same compound, the “Absorbance at 500 nm” value ([2]; 40 μM, induce time 0, control 0.047) was 0.037, the “Absorbance at 500 nm” value ([2]; 40 μM, induce time 4, control 0.084) was 0.056 and the “Absorbance at 500 nm” value ([2]; 40 μM, induce time 7, control 0.201) was 0.082. For the same compound, the “Absorbance at 500 nm” value ([2]; 40 μM, induce time 10, control 0.343) was 0.116, the “Absorbance at 500 nm” value ([2]; 40 μM, induce time 16) was 0.156 and the “Absorbance at 500 nm” value ([2]; 40 μM, induce time 19) was 0.204. For the same compound, the “Absorbance at 500 nm” value ([2]; 40 μM, induce time 22) was 0.256, the “Absorbance at 500 nm” value ([2]; 40 μM, induce time 25) was 0.282 and the “Absorbance at 500 nm” value ([2]; 40 μM, induce time 28) was 0.349. The “Absorbance at 500 nm” value ([2]; 40 μM, induce time 31) was 0.405, the “Absorbance at 500 nm” value ([2]; 40 μM, induce time 34) was 0.453 and the “Absorbance at 500 nm” value ([2]; 40 μM, induce time 37) was 0.525. For the same compound, the “Absorbance at 500 nm” value ([2]; 40 μM, induce time 40) was 0.687, the “antioxidation capability versus control” value ([2]; compared with 0.5% DMSO as control) was “potential antioxidation capable comparing to 0.5% DMSO as control” and the “K+ contraction (%), Tonic” value ([3]; conc 1 μM) was 60.2 ± 1.5%. For the same compound, the “K+ contraction (%), Tonic” value ([3]; conc 3 μM) was 36.6 ± 4.7%, the “K+ contraction (%), Tonic” value ([3]; conc 10 μM) was 5.2 ± 2.3% and the “K+ contraction (%), Tonic” value ([3]; conc 50 μM) was 4.5 ± 3.2%. The “phasic contractions” value ([3]; noradrenaline and high potassium (80 mM)) was “inhibited the phasic contractions”, the “norepinephrine contraction (%), Phrase (phasic)” value ([3]; conc 3 μM) was 121.8 ± 7.2% and the “norepinephrine contraction (%), Phrase (phasic)” value ([3]; conc 5 μM) was 100.4 ± 9.7%. For the same compound, the “norepinephrine contraction (%), Phrase (phasic)” value ([3]; conc 10 μM) was 69.3 ± 4.0%, the “norepinephrine contraction (%), Phrase (phasic)” value ([3]; conc 50 μM) was 65.9 ± 11.3% and the “norepinephrine contraction (%), Tonic” value ([3]; conc 3 μM) was 90.1 ± 5.5%. The “norepinephrine contraction (%), Tonic” value ([3]; conc 5 μM) was 77.1 ± 5.7%, the “norepinephrine contraction (%), Tonic” value ([3]; conc 10 μM) was 27.9 ± 0.5% and the “norepinephrine contraction (%), Tonic” value ([3]; conc 50 μM) was 14.6 ± 1.5%. For the same compound, the “PGE2 level” value ([4]; 0.03-10 μM, AA) was “increase PGE2 and cAMP levels”, the “Prostaglandin E2” value ([4]; conc 0.01 μM) was 40 ± 10 ng/mL and the “Prostaglandin E2” value ([4]; conc 0.03 μM) was 75 ± 15 ng/mL. For the same compound, the “Prostaglandin E2” value ([4]; conc 0.1 μM) was 115 ± 15 ng/mL, the “Prostaglandin E2” value ([4]; conc 0.3 μM) was 155 ± 29 ng/mL and the “Prostaglandin E2” value ([4]; conc 1 μM) was 205 ± 19 ng/mL. The “Prostaglandin E2” value ([4]; conc 3 μM) was 245 ± 20 ng/mL, the “Prostaglandin E2” value ([4]; conc 10 μM) was 2665 ± 21 ng/mL and the IC50 ([5]; human platelet-rich plasma, inducer A-23187 5 μM, read-out: IC50, platelet aggregation) was greater than 30 µM. For the same compound, the IC50 ([5]; human platelet-rich plasma, inducer ADP 5 μM, First Phrase, read-out: IC50, platelet aggregation, first phase) was greater than 30 µM, the IC50 ([5]; human platelet-rich plasma, inducer ADP 5 μM, Second Phrase, read-out: IC50, platelet aggregation, second phase) was 6 ± 0.6 µM and the IC50 ([5]; human platelet-rich plasma, inducer U-46619 1 μM, read-out: IC50, platelet aggregation) was 3 ± 0.4 µM. The IC50 ([5]; human platelet-rich plasma, inducer adrenaline 10 μM, First Phrase, read-out: IC50, platelet aggregation, first phase) was greater than 30 µM, the IC50 ([5]; human platelet-rich plasma, inducer adrenaline 10 μM, Second Phrase, read-out: IC50, platelet aggregation, second phase) was 7.6 ± 0.9 µM and the IC50 ([5]; human platelet-rich plasma, inducer arachidonic acid (AA) 800 μM, read-out: IC50, platelet aggregation) was 5 ± 0.4 µM. The IC50 ([5]; human platelet-rich plasma, inducer collagen, read-out: IC50, platelet aggregation) was 5.6 ± 0.6 µM, the “inhibition of U-46619 induced platelet aggregation” value ([5]; U-46619) was “potential inhibition” and the “inhibition of second phase aggregation” value ([5]; human platelet-rich plasma, ADP and adrenaline) was “inhibit second phase aggregation”. For the same compound, the “inhibition of platelet aggregation” value ([5]; induced by AA, ADP, collagen, U-46619, A-23187) was “potentially to inhibit the platelet aggregation”, the “TXA2 formation caused by AA” value ([6]; 0.03-10 μM) was “inhibit markedly the TXA2 formation” and the “Thromboxane B2” value ([6]; conc 0.01 μM) was 371 ± 35 ng/mL. For the same compound, the “Thromboxane B2” value ([6]; conc 0.03 μM) was 278 ± 25 ng/mL, the “Thromboxane B2” value ([6]; conc 0.1 μM) was 200 ± 41 ng/mL and the “Thromboxane B2” value ([6]; conc 0.3 μM) was 128 ± 25 ng/mL. The “Thromboxane B2” value ([6]; conc 1 μM) was 69 ± 25 ng/mL, the “Thromboxane B2” value ([6]; conc 3 μM) was 28 ± 10 ng/mL and the “Thromboxane B2” value ([6]; conc 10 μM) was 20 ± 5 ng/mL.
